The target of the first data set is T1, Bromodomain-containing protein 7 (Homo sapiens) (UniProt Q9NPI1).
T1 sequence (whole entry): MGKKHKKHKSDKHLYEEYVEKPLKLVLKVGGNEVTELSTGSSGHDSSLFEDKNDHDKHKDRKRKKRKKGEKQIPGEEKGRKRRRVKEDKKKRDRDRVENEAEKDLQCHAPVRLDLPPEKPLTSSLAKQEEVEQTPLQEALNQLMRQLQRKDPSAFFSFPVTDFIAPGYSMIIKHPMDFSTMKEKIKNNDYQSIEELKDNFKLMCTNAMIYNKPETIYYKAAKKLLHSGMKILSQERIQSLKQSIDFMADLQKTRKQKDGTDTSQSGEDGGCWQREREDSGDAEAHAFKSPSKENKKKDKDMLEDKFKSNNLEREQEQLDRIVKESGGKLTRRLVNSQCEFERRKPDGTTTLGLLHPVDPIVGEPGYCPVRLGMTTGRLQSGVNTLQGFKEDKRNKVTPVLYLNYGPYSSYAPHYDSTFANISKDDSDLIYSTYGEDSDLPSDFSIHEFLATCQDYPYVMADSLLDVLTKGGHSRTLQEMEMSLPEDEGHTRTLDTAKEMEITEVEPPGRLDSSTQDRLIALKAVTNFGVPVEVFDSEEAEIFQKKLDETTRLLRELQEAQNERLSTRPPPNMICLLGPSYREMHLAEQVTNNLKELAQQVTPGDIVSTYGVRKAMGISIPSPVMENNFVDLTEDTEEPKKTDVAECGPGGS
Kind of data set: Binding affinity to human BRD7 expressed in mammalian system assessed as remaining binding level at 1 uM by BROMOscan assay relative to control.
Conditions: not given
Bromodomain adjacent to zinc finger domain protein 2A (Homo sapiens), sequence (Q9UIF9 whole entry, the tested form may be a part): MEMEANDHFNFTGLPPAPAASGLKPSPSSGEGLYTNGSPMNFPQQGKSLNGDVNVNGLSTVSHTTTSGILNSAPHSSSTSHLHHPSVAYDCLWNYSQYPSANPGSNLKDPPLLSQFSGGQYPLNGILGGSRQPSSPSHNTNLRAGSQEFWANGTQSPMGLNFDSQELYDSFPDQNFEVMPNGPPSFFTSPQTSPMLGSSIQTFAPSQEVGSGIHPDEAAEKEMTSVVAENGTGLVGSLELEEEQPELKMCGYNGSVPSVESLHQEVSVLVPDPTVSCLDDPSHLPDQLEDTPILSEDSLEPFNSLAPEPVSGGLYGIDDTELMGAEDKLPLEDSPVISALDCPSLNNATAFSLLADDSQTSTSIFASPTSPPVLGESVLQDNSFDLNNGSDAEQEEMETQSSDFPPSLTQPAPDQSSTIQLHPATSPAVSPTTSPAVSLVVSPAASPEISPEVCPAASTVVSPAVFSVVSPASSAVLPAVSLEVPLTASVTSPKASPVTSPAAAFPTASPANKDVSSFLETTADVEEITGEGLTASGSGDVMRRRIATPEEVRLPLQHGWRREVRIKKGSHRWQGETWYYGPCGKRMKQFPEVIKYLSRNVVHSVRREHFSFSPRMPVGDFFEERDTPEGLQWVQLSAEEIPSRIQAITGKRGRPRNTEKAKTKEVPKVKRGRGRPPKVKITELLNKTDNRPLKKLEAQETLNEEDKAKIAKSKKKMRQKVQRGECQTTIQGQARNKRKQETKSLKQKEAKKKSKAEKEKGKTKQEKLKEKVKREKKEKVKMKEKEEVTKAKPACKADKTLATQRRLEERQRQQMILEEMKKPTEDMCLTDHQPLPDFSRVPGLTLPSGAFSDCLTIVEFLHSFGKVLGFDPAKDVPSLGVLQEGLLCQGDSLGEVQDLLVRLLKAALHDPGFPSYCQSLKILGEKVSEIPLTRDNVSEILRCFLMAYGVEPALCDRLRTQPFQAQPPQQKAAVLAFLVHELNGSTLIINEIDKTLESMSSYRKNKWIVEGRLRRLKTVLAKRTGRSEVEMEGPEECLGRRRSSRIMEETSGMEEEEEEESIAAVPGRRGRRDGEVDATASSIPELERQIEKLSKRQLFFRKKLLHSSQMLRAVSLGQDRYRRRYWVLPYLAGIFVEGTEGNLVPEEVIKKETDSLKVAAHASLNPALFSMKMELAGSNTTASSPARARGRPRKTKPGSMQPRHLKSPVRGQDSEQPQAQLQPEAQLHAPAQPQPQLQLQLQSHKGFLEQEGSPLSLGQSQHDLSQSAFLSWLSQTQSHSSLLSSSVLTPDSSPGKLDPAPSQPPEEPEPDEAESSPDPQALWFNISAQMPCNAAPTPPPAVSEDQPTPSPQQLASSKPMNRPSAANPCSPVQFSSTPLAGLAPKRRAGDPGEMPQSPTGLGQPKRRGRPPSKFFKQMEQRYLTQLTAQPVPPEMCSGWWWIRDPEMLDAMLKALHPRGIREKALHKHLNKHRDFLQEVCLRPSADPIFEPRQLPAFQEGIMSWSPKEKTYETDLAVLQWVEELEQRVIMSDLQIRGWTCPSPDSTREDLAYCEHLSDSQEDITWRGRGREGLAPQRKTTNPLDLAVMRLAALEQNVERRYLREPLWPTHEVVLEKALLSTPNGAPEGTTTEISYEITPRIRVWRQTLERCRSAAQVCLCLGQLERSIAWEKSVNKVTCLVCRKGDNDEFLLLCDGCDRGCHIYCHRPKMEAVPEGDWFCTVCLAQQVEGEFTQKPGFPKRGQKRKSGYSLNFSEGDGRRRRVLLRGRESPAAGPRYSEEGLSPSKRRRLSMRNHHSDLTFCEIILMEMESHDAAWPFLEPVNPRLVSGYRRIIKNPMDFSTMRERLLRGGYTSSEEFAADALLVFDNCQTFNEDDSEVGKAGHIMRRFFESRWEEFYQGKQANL
Protein polybromo-1 (Homo sapiens), sequence (Q86U86 whole entry): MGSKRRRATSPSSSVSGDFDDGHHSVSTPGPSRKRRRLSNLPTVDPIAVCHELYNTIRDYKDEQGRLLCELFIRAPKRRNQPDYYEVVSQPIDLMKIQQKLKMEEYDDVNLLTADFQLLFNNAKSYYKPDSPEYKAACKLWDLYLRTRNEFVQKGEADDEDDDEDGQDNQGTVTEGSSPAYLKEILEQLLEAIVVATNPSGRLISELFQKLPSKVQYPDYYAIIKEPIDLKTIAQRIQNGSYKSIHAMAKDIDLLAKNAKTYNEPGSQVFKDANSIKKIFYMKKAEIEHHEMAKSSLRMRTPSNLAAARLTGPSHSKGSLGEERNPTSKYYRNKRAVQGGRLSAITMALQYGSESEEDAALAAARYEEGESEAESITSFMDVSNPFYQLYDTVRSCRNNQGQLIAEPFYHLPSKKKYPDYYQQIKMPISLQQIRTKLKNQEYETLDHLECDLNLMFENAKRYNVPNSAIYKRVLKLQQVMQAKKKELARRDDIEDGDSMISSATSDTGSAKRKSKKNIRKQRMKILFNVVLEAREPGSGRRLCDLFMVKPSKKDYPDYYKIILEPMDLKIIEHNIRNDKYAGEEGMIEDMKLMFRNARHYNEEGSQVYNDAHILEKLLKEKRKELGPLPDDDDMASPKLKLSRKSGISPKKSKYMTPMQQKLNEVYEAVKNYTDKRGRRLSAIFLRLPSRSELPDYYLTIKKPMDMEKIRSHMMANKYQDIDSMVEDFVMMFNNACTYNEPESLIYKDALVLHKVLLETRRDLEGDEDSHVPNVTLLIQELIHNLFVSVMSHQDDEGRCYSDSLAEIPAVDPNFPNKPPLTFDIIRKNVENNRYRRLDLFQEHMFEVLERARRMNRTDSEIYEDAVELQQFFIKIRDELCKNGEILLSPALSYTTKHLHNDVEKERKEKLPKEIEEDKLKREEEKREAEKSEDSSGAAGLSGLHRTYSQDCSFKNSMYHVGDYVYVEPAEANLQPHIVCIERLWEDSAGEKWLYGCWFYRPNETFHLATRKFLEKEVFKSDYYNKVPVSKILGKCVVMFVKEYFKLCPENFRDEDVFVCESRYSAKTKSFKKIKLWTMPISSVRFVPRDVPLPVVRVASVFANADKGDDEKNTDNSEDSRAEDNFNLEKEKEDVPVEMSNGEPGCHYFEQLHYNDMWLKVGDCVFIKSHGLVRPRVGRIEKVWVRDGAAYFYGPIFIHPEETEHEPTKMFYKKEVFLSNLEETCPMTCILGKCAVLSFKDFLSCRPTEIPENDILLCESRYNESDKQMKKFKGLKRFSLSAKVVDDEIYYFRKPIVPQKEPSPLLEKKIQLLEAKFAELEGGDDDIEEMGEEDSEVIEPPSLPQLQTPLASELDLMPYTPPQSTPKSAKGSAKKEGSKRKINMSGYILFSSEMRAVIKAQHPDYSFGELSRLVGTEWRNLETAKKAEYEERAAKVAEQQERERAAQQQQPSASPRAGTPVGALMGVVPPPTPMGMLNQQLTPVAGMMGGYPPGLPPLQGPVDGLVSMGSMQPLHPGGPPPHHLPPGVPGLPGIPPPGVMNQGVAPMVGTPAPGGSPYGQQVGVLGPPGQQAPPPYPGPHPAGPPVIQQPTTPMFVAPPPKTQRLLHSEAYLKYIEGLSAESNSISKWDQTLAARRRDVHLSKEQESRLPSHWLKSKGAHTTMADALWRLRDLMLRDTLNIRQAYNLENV
`Cn1cc2c3c(c[nH]c(=O)c31)-c1cc(CS(C)(=O)=O)ccc1N(c1ccc(F)cc1)C2`: the Activity was 100%.
On to `Cn1cc2c3c(c[nH]c3c1=O)CN(c1ccccn1)c1ccc(CS(C)(=O)=O)cc1-2`, for which the Activity amounted to 96%.
Take `Cn1cc2c3c(c[nH]c3c1=O)CN(c1ccc(F)cc1F)c1ccc(CS(C)(=O)=O)cc1-2`: the Activity was 92%.

In a further data set the target is Bromodomain testis-specific protein (Homo sapiens, UniProt Q58F21). Kind of data set: Binding affinity to BRDT bromodomain 1 to 2 (N21to P380 amino acids) (unknown origin) using Alexa647-labeled BET-inhibitor as fluorescent probe by bromodomain TR-FRET binding assay.
Conditions: not given
(In general: Time-resolved FRET reads energy transfer from a long-lived donor to a nearby acceptor.)
Broadly, the Ki is the dissociation constant of the complex between target and ligand, obtained from inhibition or displacement. A lower Ki goes with tighter binding. The compound `Cn1cc2c3c(c[nH]c(=O)c31)-c1cc(CS(C)(=O)=O)ccc1N(c1ccc(F)cc1)C2` displayed an inhibition constant Ki of 5.9 nM. This counts as single-digit nanomolar.
`Cn1cc2c3c(c[nH]c3c1=O)CN(c1ccccn1)c1ccc(CS(C)(=O)=O)cc1-2` showed an inhibition constant Ki of 0.69 nM.
As to `Cn1cc2c3c(c[nH]c3c1=O)CN(c1ccc(F)cc1F)c1ccc(CS(C)(=O)=O)cc1-2`, affinity was put at a Ki of 4.2 nM.

The target of a further data set is T2, Bromodomain-containing protein 4 (Homo sapiens, UniProt O60885). Kind of data set: Binding affinity to BRD4 in human H1299 cells stably expressing E2 and HPV16-LCR luciferase reporter incubated for 24 hrs by Bright-Glo luciferase reporter gene assay based BRD4 engagement assay. It is filed as cell-based.
Conditions: not given
A general note: Reporter assays use an easily measured gene product as a stand-in for the process of interest.
In general, IC50 refers to the concentration that gives 50% inhibition. As to `Cn1cc2c3c(c[nH]c(=O)c31)-c1cc(CS(C)(=O)=O)ccc1N(c1ccc(F)cc1)C2`, the IC50 stood at 2.5 nM.
Compound `Cn1cc2c3c(c[nH]c3c1=O)CN(c1ccccn1)c1ccc(CS(C)(=O)=O)cc1-2` gave an IC50 of 1.7 nM.
On the same count and under the same terms, the value for `Cn1cc2c3c(c[nH]c3c1=O)CN(c1ccc(F)cc1F)c1ccc(CS(C)(=O)=O)cc1-2` was 3.6 nM.

The next data set addresses T3, ATPase family AAA domain-containing protein 2B (Homo sapiens) (UniProt Q9ULI0).
T3 sequence (whole entry): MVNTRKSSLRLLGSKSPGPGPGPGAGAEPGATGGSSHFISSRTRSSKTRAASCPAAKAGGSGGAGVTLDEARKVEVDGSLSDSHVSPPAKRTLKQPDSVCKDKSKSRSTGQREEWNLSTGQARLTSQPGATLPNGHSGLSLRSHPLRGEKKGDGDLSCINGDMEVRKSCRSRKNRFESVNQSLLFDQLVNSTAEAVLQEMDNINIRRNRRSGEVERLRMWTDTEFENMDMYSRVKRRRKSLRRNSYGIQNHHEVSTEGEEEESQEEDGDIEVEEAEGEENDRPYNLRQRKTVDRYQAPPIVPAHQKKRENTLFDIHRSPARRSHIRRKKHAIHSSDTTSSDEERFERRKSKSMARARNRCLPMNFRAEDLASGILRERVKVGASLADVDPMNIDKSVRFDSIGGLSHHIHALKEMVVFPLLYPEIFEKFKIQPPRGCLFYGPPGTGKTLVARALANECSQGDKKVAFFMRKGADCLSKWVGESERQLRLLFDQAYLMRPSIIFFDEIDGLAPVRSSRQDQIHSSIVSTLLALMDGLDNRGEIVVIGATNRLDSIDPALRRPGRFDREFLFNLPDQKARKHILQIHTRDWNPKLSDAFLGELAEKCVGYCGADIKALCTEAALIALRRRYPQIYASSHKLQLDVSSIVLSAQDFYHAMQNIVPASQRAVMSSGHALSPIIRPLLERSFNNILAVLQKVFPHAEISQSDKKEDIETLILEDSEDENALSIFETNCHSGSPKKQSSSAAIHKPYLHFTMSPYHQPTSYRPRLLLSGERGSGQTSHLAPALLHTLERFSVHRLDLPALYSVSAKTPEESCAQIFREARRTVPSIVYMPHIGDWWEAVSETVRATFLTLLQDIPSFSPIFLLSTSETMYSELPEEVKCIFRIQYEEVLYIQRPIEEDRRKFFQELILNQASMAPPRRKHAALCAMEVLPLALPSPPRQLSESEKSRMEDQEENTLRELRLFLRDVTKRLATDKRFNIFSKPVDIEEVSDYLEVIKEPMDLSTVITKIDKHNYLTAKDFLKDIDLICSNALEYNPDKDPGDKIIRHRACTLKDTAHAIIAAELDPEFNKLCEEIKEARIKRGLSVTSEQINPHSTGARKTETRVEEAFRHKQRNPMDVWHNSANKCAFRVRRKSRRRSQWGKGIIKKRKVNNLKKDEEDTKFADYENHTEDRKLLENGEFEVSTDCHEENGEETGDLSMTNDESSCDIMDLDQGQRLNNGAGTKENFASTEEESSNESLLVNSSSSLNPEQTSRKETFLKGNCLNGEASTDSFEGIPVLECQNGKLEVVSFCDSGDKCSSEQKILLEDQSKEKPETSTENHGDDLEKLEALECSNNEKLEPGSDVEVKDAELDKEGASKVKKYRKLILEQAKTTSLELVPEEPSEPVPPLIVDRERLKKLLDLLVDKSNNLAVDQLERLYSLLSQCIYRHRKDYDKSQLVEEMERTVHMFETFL
Description: Binding affinity to human ATAD2B expressed in bacterial system assessed as remaining binding level at 1 uM by BROMOscan assay relative to control.
Conditions: not given
`Cn1cc2c3c(c[nH]c(=O)c31)-c1cc(CS(C)(=O)=O)ccc1N(c1ccc(F)cc1)C2`: the Activity stood at 76%.
Regarding `Cn1cc2c3c(c[nH]c3c1=O)CN(c1ccccn1)c1ccc(CS(C)(=O)=O)cc1-2`, the Activity was 33%.
`Cn1cc2c3c(c[nH]c3c1=O)CN(c1ccc(F)cc1F)c1ccc(CS(C)(=O)=O)cc1-2`: the Activity came to 60%.

Another data set concerns the target Bromodomain-containing protein 2 (Homo sapiens, UniProt P25440). Kind of data set: Binding affinity to BRD2 bromodomain 1 to 2 (G73 to A560 amino acids) (unknown origin) using Alexa647-labeled BET-inhibitor as fluorescent probe by bromodomain TR-FRET binding assay.
Conditions: not given
`Cn1cc2c3c(c[nH]c(=O)c31)-c1cc(CS(C)(=O)=O)ccc1N(c1ccc(F)cc1)C2` registered a Ki of 2.6 nM.
`Cn1cc2c3c(c[nH]c3c1=O)CN(c1ccccn1)c1ccc(CS(C)(=O)=O)cc1-2` returned a Ki of 0.48 nM.
Take `Cn1cc2c3c(c[nH]c3c1=O)CN(c1ccc(F)cc1F)c1ccc(CS(C)(=O)=O)cc1-2`: affinity was put at a Ki of 2.5 nM.

Another data set concerns the target Nucleosome-remodeling factor subunit BPTF (Homo sapiens) (UniProt Q12830). Description: Binding affinity to human FALZ expressed in bacterial system assessed as remaining binding level at 1 uM by BROMOscan assay relative to control.
Conditions: not given
For `Cn1cc2c3c(c[nH]c(=O)c31)-c1cc(CS(C)(=O)=O)ccc1N(c1ccc(F)cc1)C2`, the Activity was determined as 100%.
On to `Cn1cc2c3c(c[nH]c3c1=O)CN(c1ccccn1)c1ccc(CS(C)(=O)=O)cc1-2`, for which the Activity is 39%.
With `Cn1cc2c3c(c[nH]c3c1=O)CN(c1ccc(F)cc1F)c1ccc(CS(C)(=O)=O)cc1-2`, the Activity amounted to 76%.

A further data set addresses Protein polybromo-1 (Homo sapiens) (UniProt Q86U86). Kind of data set: Binding affinity to human PBRM1 bromodomain 5 expressed in bacterial system assessed as remaining binding level at 1 uM by BROMOscan assay relative to control.
Conditions: not given
Consider `Cn1cc2c3c(c[nH]c(=O)c31)-c1cc(CS(C)(=O)=O)ccc1N(c1ccc(F)cc1)C2`, for which the Activity amounted to 96%.
Take `Cn1cc2c3c(c[nH]c3c1=O)CN(c1ccccn1)c1ccc(CS(C)(=O)=O)cc1-2`: the Activity is 62%.
In the case of `Cn1cc2c3c(c[nH]c3c1=O)CN(c1ccc(F)cc1F)c1ccc(CS(C)(=O)=O)cc1-2`, the Activity was 81%.

Another data set has as its target T2, Bromodomain-containing protein 4. Kind of data set: Binding affinity to His-tagged BRD4 bromodomain 1 to 2 (K57 to K550 amino acids) (unknown origin) using Alexa647-labeled BET-inhibitor as fluorescent probe by bromodomain TR-FRET binding assay. It is filed as single protein.
Conditions: not given
As for `Cn1cc2c3c(c[nH]c(=O)c31)-c1cc(CS(C)(=O)=O)ccc1N(c1ccc(F)cc1)C2`, the affinity, expressed as Ki, was 3.3 nM.
The compound `Cn1cc2c3c(c[nH]c3c1=O)CN(c1ccccn1)c1ccc(CS(C)(=O)=O)cc1-2` had an inhibition constant (Ki) of 0.62 nM.
`Cn1cc2c3c(c[nH]c3c1=O)CN(c1ccc(F)cc1F)c1ccc(CS(C)(=O)=O)cc1-2` displayed an inhibitory constant (Ki) of 0.87 nM.

Test system in another data set: not listed separately
Description: Intrinsic unbound clearance in mouse liver microsomes. In kind it is ADME, microsome.
Conditions: not given
For `Cn1cc2c3c(c[nH]c(=O)c31)-c1cc(CS(C)(=O)=O)ccc1N(c1ccc(F)cc1)C2`, the CL free came to 317 mL/min/kg.
For the compound `Cn1cc2c3c(c[nH]c3c1=O)CN(c1ccccn1)c1ccc(CS(C)(=O)=O)cc1-2`, the CL free was found to be 233 mL/min/kg.
In turn, `Cn1cc2c3c(c[nH]c3c1=O)CN(c1ccc(F)cc1F)c1ccc(CS(C)(=O)=O)cc1-2` returned a CL free of 533 mL/min/kg.

Another data set addresses Bromodomain adjacent to zinc finger domain protein 2A (Homo sapiens) (UniProt Q9UIF9). Kind of data set: Binding affinity to human BAZ2A expressed in bacterial system assessed as remaining binding level at 1 uM by BROMOscan assay relative to control.
Conditions: not given
Take `Cn1cc2c3c(c[nH]c(=O)c31)-c1cc(CS(C)(=O)=O)ccc1N(c1ccc(F)cc1)C2`: the Activity came to 100%.
On to `Cn1cc2c3c(c[nH]c3c1=O)CN(c1ccccn1)c1ccc(CS(C)(=O)=O)cc1-2`, for which the Activity was determined as 26%.
On the same count and under the same terms, the value for `Cn1cc2c3c(c[nH]c3c1=O)CN(c1ccc(F)cc1F)c1ccc(CS(C)(=O)=O)cc1-2` was 47%.

A further data set deals with Histone acetyltransferase KAT2B (Homo sapiens) (UniProt Q92831). Description: Binding affinity to human PCAF expressed in mammalian system assessed as remaining binding level at 1 uM by BROMOscan assay relative to control.
Histone acetyltransferase KAT2B (Homo sapiens), sequence (Q92831 whole entry, looked up): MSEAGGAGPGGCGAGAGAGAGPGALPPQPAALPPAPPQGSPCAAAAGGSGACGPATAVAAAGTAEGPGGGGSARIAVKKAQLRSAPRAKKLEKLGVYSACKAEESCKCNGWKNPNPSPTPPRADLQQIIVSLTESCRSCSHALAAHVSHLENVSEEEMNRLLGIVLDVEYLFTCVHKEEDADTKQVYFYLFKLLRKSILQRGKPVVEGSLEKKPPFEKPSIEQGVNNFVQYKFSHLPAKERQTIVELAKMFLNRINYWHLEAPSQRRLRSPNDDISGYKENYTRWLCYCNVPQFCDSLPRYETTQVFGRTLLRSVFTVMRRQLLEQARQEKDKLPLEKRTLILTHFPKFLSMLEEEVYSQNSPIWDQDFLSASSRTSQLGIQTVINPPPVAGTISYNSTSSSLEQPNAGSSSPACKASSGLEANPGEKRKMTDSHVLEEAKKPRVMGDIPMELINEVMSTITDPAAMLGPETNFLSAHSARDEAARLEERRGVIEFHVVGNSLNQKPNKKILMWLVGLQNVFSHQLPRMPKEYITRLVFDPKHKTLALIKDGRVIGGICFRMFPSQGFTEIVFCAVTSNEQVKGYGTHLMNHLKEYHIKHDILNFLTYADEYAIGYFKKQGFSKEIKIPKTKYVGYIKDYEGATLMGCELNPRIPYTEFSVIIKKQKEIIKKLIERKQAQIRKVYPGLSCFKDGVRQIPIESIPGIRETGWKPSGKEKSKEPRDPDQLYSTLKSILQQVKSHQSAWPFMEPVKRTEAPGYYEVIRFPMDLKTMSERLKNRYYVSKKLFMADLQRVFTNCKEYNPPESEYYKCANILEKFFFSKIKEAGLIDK
Conditions: not given
With `Cn1cc2c3c(c[nH]c(=O)c31)-c1cc(CS(C)(=O)=O)ccc1N(c1ccc(F)cc1)C2`, the Activity worked out at 82%.
On to `Cn1cc2c3c(c[nH]c3c1=O)CN(c1ccccn1)c1ccc(CS(C)(=O)=O)cc1-2`, for which the Activity was found to be 94%.
For `Cn1cc2c3c(c[nH]c3c1=O)CN(c1ccc(F)cc1F)c1ccc(CS(C)(=O)=O)cc1-2`, the Activity stood at 90%.

Test system in a further data set: not listed separately
Kind of data set: Permeability of the compound by PAMPA method. It is filed as ADME. The following applies: read-out: permeability. A general note: PAMPA measures passive passage across an artificial lipid membrane.
For `Cn1cc2c3c(c[nH]c(=O)c31)-c1cc(CS(C)(=O)=O)ccc1N(c1ccc(F)cc1)C2`, the Papp is 5.1 ×10⁻⁶ cm/s.
On to `Cn1cc2c3c(c[nH]c3c1=O)CN(c1ccccn1)c1ccc(CS(C)(=O)=O)cc1-2`, for which the Papp was 6 ×10⁻⁶ cm/s.
The same measure, in the same setting: then `Cn1cc2c3c(c[nH]c3c1=O)CN(c1ccc(F)cc1F)c1ccc(CS(C)(=O)=O)cc1-2`, with 13 ×10⁻⁶ cm/s.

Source of the values: ChEMBL document CHEMBL4190379 (Bioorg Med Chem Lett, 2018).
